Converted amounts (≈) assume the structure as drawn.
Tests used:
[1] = biological target: T1, Phospho-N-acetylmuramoyl-pentapeptide-transferase (Bacillus subtilis (strain 168), UniProt Q03521); experiment: Inhibition of MraY in Bacillus subtilis
T1 sequence (Q03521 whole entry): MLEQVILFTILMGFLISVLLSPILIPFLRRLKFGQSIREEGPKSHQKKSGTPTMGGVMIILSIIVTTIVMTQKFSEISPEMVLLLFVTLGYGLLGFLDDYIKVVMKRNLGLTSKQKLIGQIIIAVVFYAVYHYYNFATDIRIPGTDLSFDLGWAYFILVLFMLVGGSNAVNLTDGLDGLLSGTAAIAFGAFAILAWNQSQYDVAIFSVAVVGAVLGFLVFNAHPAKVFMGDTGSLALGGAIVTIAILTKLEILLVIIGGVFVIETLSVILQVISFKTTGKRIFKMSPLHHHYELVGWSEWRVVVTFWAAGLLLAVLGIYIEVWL

Mycolicibacterium phlei = experiment: Antibacterial activity against Mycobacterium phlei; format: functional
[2] = test system: Mycobacterium tuberculosis; experiment: Antibacterial activity against Mycobacterium tuberculosis H37Rv; format: functional
[3] = Antibacterial activity against Mycobacterium avium subsp. avium ATCC 25291; format: functional
Staphylococcus aureus [4] = experiment: Antibacterial activity against methicillin resistant Staphylococcus aureus No. 5; format: functional
[5] = test system: Mycobacterium tuberculosis; experiment: Antibacterial activity against Mycobacterium tuberculosis Kurono; format: functional
[6] = test system: Mycobacterium tuberculosis; experiment: Antibacterial activity against Mycobacterium tuberculosis JCM 6384; format: functional
[7] = test system: Mycolicibacterium smegmatis; experiment: Antibacterial activity against Mycobacterium smegmatis ATCC 607; format: functional
Mycolicibacterium vaccae = experiment: Antibacterial activity against Mycobacterium vaccae ATCC 15483; format: functional
Staphylococcus aureus [8] = experiment: Antibacterial activity against Staphylococcus aureus FDA 209P; format: functional
Staphylococcus aureus [9] = experiment: Antibacterial activity against methicillin resistant Staphylococcus aureus MS16526; format: functional
Bacillus subtilis = experiment: Antibacterial activity against Bacillus subtilis PCI 219; format: functional
Escherichia coli = experiment: Antibacterial activity against Escherichia coli K-12; format: functional
Streptococcus pneumoniae = experiment: Antibacterial activity against Streptococcus pneumoniae PCI 602; format: functional
[10] = test system: Mycobacterium avium subsp. paratuberculosis; experiment: Antibacterial activity against Mycobacterium avium subsp. paratuberculosis ATCC 43015; format: functional
[11] = biological target: T2, Phospho-N-acetylmuramoyl-pentapeptide-transferase (Aquifex aeolicus (strain VF5), UniProt O66465); experiment: Inhibition of MraY in Aquifex aeolicus
T2 sequence (O66465 whole entry): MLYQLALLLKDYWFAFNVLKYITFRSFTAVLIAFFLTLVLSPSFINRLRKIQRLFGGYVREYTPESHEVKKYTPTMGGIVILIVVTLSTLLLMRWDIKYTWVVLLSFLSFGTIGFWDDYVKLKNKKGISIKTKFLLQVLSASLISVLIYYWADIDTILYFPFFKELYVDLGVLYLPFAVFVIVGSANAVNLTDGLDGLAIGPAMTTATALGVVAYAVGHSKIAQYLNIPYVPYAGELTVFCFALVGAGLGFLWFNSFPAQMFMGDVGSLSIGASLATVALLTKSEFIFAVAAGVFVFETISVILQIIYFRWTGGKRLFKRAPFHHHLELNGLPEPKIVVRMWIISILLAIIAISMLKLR

NC[C@H]1O[C@@H](O[C@@H](c2cn(CCN3CCN(c4ccc(N)cn4)CC3)nn2)[C@H]2O[C@@H](n3ccc(=O)[nH]c3=O)[C@H](O)[C@@H]2O)[C@H](O)[C@@H]1O
IC50 [1]: > 1000 µM

C#C[C@H](O[C@@H]1O[C@H](CN)[C@@H](O)[C@H]1O)[C@H]1O[C@@H](n2ccc(=O)[nH]c2=O)[C@H](O)[C@@H]1O
IC50 [1]: 100 µM

NC[C@H]1O[C@@H](O[C@@H](c2cn(CCCc3ccccc3)nn2)[C@H]2O[C@@H](n3ccc(=O)[nH]c3=O)[C@H](O)[C@@H]2O)[C@H](O)[C@@H]1O
IC50 [1]: 250 µM

NC[C@H]1O[C@@H](O[C@@H](c2cn(CCCO)nn2)[C@H]2O[C@@H](n3ccc(=O)[nH]c3=O)[C@H](O)[C@@H]2O)[C@H](O)[C@@H]1O
IC50 [1]: > 1000 µM

NC[C@H]1O[C@@H](O[C@@H](c2cn(CCCOc3ccc(C(=O)c4ccccc4)cc3)nn2)[C@H]2O[C@@H](n3ccc(=O)[nH]c3=O)[C@H](O)[C@@H]2O)[C@H](O)[C@@H]1O [listing 1 of 2 here]
IC50 [1]: 100 µM

CCCCCCCCCCCCNC(=O)C1=CCN(C)[C@@H]([C@H](O[C@@H]2O[C@H](CN)[C@@H](O)[C@H]2O)[C@H]2O[C@@H](n3ccc(=O)[nH]c3=O)[C@H](O)[C@@H]2O)C(=O)N1C
MIC (Mycolicibacterium phlei): 0.39 µg/mL (≈ 0.538 µM)
MIC [2]: 1.56 µg/mL (≈ 2.15 µM)
MIC [3]: 3.13 µg/mL (≈ 4.32 µM)
MIC (Staphylococcus aureus [4]): 12.5 µg/mL (≈ 17.2 µM)
MIC [5]: 1.56 µg/mL (≈ 2.15 µM)
MIC [6]: 0.2 µg/mL (≈ 0.276 µM)
MIC [7]: 0.39 µg/mL (≈ 0.538 µM)
MIC (Mycolicibacterium vaccae): 1.56 µg/mL (≈ 2.15 µM)
MIC (Staphylococcus aureus [8]): 3.13 µg/mL (≈ 4.32 µM)
MIC (Staphylococcus aureus [9]): 6.25 µg/mL (≈ 8.62 µM)
MIC (Bacillus subtilis): 0.78 µg/mL (≈ 1.08 µM)
MIC (Escherichia coli): 100 µg/mL (≈ 138 µM)
MIC (Streptococcus pneumoniae): 6.25 µg/mL (≈ 8.62 µM)

NCCCCCn1cc([C@H](O[C@@H]2O[C@H](CN)[C@@H](O)[C@H]2O)[C@H]2O[C@@H](n3ccc(=O)[nH]c3=O)[C@H](O)[C@@H]2O)nn1
IC50 [1]: > 1000 µM

CCCCCCCCCCCCCCCCNC(=O)C1=CCN(C)[C@@H]([C@H](O[C@@H]2O[C@H](CN)[C@@H](O)[C@H]2O)[C@H]2O[C@@H](n3ccc(=O)[nH]c3=O)[C@H](O)[C@@H]2O)C(=O)N1C
MIC (Mycolicibacterium phlei): > 100 µg/mL
MIC [2]: 3.13 µg/mL (≈ 4.01 µM)
MIC [3]: 3.13 µg/mL (≈ 4.01 µM)
MIC [10]: 6.25 µg/mL (≈ 8 µM)
MIC (Staphylococcus aureus [4]): 1.56 µg/mL (≈ 2 µM)
MIC [5]: 3.13 µg/mL (≈ 4.01 µM)
MIC [6]: 3.13 µg/mL (≈ 4.01 µM)
MIC [7]: 0.78 µg/mL (≈ 0.999 µM)
MIC (Mycolicibacterium vaccae): > 100 µg/mL
MIC (Staphylococcus aureus [8]): 0.78 µg/mL (≈ 0.999 µM)
MIC (Streptococcus pneumoniae): 1.56 µg/mL (≈ 2 µM)

NC[C@H]1O[C@@H](O[C@@H](c2cn(CCCCCCCCCCOc3ccc(C(=O)c4ccccc4)cc3)nn2)[C@H]2O[C@@H](n3ccc(=O)[nH]c3=O)[C@H](O)[C@@H]2O)[C@H](O)[C@@H]1O
IC50 [1]: 125 µM

NC[C@H]1O[C@@H](O[C@@H](c2cn(CCCCCO)nn2)[C@H]2O[C@@H](n3ccc(=O)[nH]c3=O)[C@H](O)[C@@H]2O)[C@H](O)[C@@H]1O
IC50 [1]: > 1000 µM

NC[C@H]1O[C@@H](O[C@@H](c2cn(CCCOc3ccc(C(=O)c4ccccc4)cc3)nn2)[C@H]2O[C@@H](n3ccc(=O)[nH]c3=O)[C@H](O)[C@@H]2O)[C@H](O)[C@@H]1O [listing 2 of 2 here]
IC50 [11]: 125 µM
IC50 [1]: 100 µM

CCCCCCCCCCn1cc([C@H](O[C@@H]2O[C@H](CN)[C@@H](O)[C@H]2O)[C@H]2O[C@@H](n3ccc(=O)[nH]c3=O)[C@H](O)[C@@H]2O)nn1
IC50 [1]: 140 µM
